The source made the active and inactive calls. No cut-off for these calls is given here.

Data set [1] can be described thus: Drug level in rat liver microsomes treated with (S)-N1-(5-(2-tert-butylpyrimidin-4-yl)-4-methylthiazol-2-yl)pyrrolidine-1,2-dicarboxamide at 5 uM measured after 1 hr in presence of alamethicin,uridine 5'-diphospho-glucuronic acid,glutathione,NADPH by capillary-HPLC/MS analysis. It is filed as ADME.
Data set [2] can be described thus: Drug level in human liver microsomes treated with (S)-N1-(5-(2-tert-butylpyrimidin-4-yl)-4-methylthiazol-2-yl)pyrrolidine-1,2-dicarboxamide at 5 uM measured after 1 hr in presence of alamethicin,uridine 5'-diphospho-glucuronic acid,glutathione,NADPH by capillary-HPLC/MS analysis. It is filed as ADME.
Data set [3] is described as follows: Drug level in rat liver microsomes treated with (S)-N1-(5-(2-tert-butylpyrimidin-4-yl)-4-methylthiazol-2-yl)pyrrolidine-1,2-dicarboxamide at 5 uM measured immediately after compound addition in presence of alamethicin,uridine 5'-diphospho-glucuronic acid,glutathione,NADPH by capillary-HPLC/MS analysis. It is filed as ADME.
Data set [4] is described as follows: Drug level in rat hepatocytes treated with 1 uM (2S)-N1-[4-methyl-5-[2-[2,2,2-trideuterio-1,1-bis(trideuteriomethyl)ethyl]pyrimidin-4-yl]thiazol-2-yl]pyrrolidine-1,2-dicarboxamide measured after 40 to 60 mins by capillary-HPLC/MS analysis. It is filed as ADME, cell-based, Hepatocyte.
Data set [5] is described as follows: Drug level in human hepatocytes treated with 1 uM (2S)-N1-[4-methyl-5-[2-[2,2,2-trideuterio-1,1-bis(trideuteriomethyl)ethyl]pyrimidin-4-yl]thiazol-2-yl]pyrrolidine-1,2-dicarboxamide measured after 40 to 60 mins by capillary-HPLC/MS analysis. It is filed as ADME, cell-based, Hepatocyte.
Data set [6] is described as follows: Stability in rat liver microsomes assessed as compound remaining at 5 uM measured immediately after compound addition in presence of alamethicin,uridine 5'-diphospho-glucuronic acid,glutathione,NADPH by capillary-HPLC/MS analysis (reference value: 96.3 %). The following applies: read-out: Stability. It is filed as ADME.
Data set [7] can be described thus: Stability in rat liver microsomes assessed as compound remaining at 5 uM measured after 1 hr in presence of alamethicin,uridine 5'-diphospho-glucuronic acid,glutathione,NADPH by capillary-HPLC/MS analysis (reference value: 96.3 %). It is filed as ADME. The following applies: read-out: Stability.
Data set [8] is described as follows: Stability in human liver microsomes assessed as compound remaining at 5 uM measured after 1 hr in presence of alamethicin,uridine 5'-diphospho-glucuronic acid,glutathione,NADPH by capillary-HPLC/MS analysis (reference value: 96.3 %). It is filed as ADME. The following applies: read-out: Stability.
Data set [9] is described as follows: Intrinsic clearance in mouse liver microsomes at 1 uM after 5 to 30 mins in presence of NADPH by LC-MS/MS analysis. It is filed as ADME. As to conditions: read-out: CLH.
The nature of data set [10]: Intrinsic clearance in rat liver microsomes at 1 uM after 5 to 30 mins in presence of NADPH by LC-MS/MS analysis. It is filed as ADME. As to conditions: read-out: CLH.
Data set [11] can be described thus: Intrinsic clearance in human liver microsomes at 1 uM after 5 to 30 mins in presence of NADPH by LC-MS/MS analysis. It is filed as ADME. As to conditions: read-out: CLH.
Data set [12] can be described thus: Volume of distribution at steady state in Sprague-Dawley rat at 1 mg/kg, iv or 3 mg/kg, po administered in cassette mode measured up to 48 hrs. It is filed as ADME, organism-based. As to conditions: in vivo, read-out: Vdss.
Data set [13] in a line: Terminal half life in Sprague-Dawley rat at 3 mg/kg, po administered in cassette mode. The following applies: in vivo, read-out: beta t1/2 (converted). It is filed as ADME, organism-based.
Data set [14] in a line: Dose normalized AUC in Sprague-Dawley rat at 1 mg/kg, iv administered in cassette mode measured up to 48 hrs. It is filed as ADME, organism-based. As to conditions: in vivo.
Data set [15] is described as follows: Dose normalized AUC in Sprague-Dawley rat at 3 mg/kg, po administered in cassette mode measured up to 48 hrs. It is filed as ADME, organism-based. As to conditions: in vivo.
The nature of data set [16]: Oral bioavailability in Sprague-Dawley rat at 3 mg/kg administered in cassette mode measured up to 48 hrs. It is filed as ADME, organism-based. As to conditions: in vivo.
Data set [17] is described as follows: Dose normalized Cmax in Sprague-Dawley rat at 1 mg/kg, iv or 3 mg/kg, po administered in cassette mode. It is filed as ADME, organism-based. The following applies: in vivo.
Data set [18] can be described thus: Tmax in Sprague-Dawley rat at 1 mg/kg, iv or 3 mg/kg, po administered in cassette mode. It is filed as ADME, organism-based. As to conditions: in vivo.
Data set [19] is described as follows: Stability in Sprague-Dawley rat blood assessed as compound remaining at 1 mg/kg, iv administered in cassette mode measured after 0.5 hrs by capillary-HPLC/MS analysis. It is filed as ADME, organism-based. As to conditions: whole blood, read-out: Stability.
Data set [20] can be described thus: Stability in Sprague-Dawley rat blood assessed as compound remaining at 1 mg/kg, iv administered in cassette mode measured after 1 hr by capillary-HPLC/MS analysis. As to conditions: whole blood, read-out: Stability. It is filed as ADME, organism-based.
Data set [21] can be described thus: Stability in Sprague-Dawley rat blood assessed as compound remaining at 3 mg/kg, po administered in cassette mode measured after 0.5 hrs by capillary-HPLC/MS analysis. It is filed as ADME, organism-based. As to conditions: whole blood, read-out: Stability.
Data set [22] can be described thus: Stability in Sprague-Dawley rat blood assessed as compound remaining at 3 mg/kg, po administered in cassette mode measured after 1 hr by capillary-HPLC/MS analysis. It is filed as ADME, organism-based. The following applies: whole blood, read-out: Stability.
The nature of data set [23]: AUC (0 to 24 hrs) in Harlan nude mouse plasma xenografted with Rat1 cells expressing myr-p110alpha at 50 mg/kg, po qd administered for 8 days measured post last dose. It is filed as ADME, organism-based. On the set-up: time < 24 hr, dose 50 mg/kg, route oral.
Data set [24] is described as follows: AUC (0 to 24 hrs) in Harlan nude mouse plasma xenografted with Rat1 cells expressing myr-p110alpha at 100 mg/kg, po qd administered for 8 days measured post last dose. It is filed as ADME, organism-based. On the set-up: dose 100 mg/kg, time < 24 hr, route oral.
The nature of data set [25]: AUC (0 to 24 hrs) in Harlan nude mouse plasma xenografted with Rat1 cells expressing myr-p110alpha at 150 mg/kg, po qd administered for 8 days measured post last dose. It is filed as ADME, organism-based. On the set-up: time < 24 hr, dose 150 mg/kg, route oral.
Data set [26] can be described thus: Antitumor activity in Rat1 cells expressing myr-p110alpha xenografted in Harlan nude mouse assessed as tumor regression at 100 mg/kg, po qd administered for 8 days measured post last dose. It is filed as functional, Rattus norvegicus.
The nature of data set [27]: Antitumor activity in Rat1 cells expressing myr-p110alpha xenografted in Harlan nude mouse assessed as tumor regression at 150 mg/kg, po qd administered for 8 days measured post last dose. It is filed as functional, Rattus norvegicus.
For data set [28], the species on record is Mus musculus. The following applies: Harlan, Rat1, 50 mg/kg.
The species named for data set [29] is Mus musculus. As to conditions: Harlan, Rat1, 50 mg/kg. The source holds these as a separate data set.
Data set [30] is described as follows: Stability in rat hepatocytes assessed as compound remaining at 1 uM measured after 40 to 60 mins by capillary-HPLC/MS analysis. The following applies: read-out: Stability. It is filed as ADME, cell-based, Hepatocyte.
A short description of data set [31]: Stability in human hepatocytes assessed as compound remaining at 1 uM measured after 40 to 60 mins by capillary-HPLC/MS analysis. It is filed as ADME, cell-based, Hepatocyte. The following applies: read-out: Stability.
The nature of data set [32]: Clearance in Sprague-Dawley rat at 1 mg/kg, iv administered in cassette mode measured up to 48 hrs. It is filed as ADME, organism-based. As to conditions: in vivo.
The nature of data set [33]: Antitumor activity in Rat1 cells expressing myr-p110alpha xenografted in Harlan nude mouse assessed as tumor regression at 25 mg/kg, po qd administered for 8 days measured post last dose. It is filed as functional, Rattus norvegicus.
The nature of data set [34]: Antitumor activity in Rat1 cells expressing myr-p110alpha xenografted in Harlan nude mouse assessed as tumor regression at 50 mg/kg, po qd administered for 8 days measured post last dose. It is filed as functional, Rattus norvegicus.

For `Cc1nc(NC(=O)N2CCC[C@H]2C(=O)O)sc1-c1ccnc(C(C)(C)C)n1`, the Drug metabolism result in [1], in data set [2] and in data set [3] was “Metabolite_Detected” in each case.
For `[2H]C([2H])([2H])C(c1nccc(-c2sc(NC(=O)N3CCC[C@H]3C(=O)O)nc2C)n1)(C([2H])([2H])[2H])C([2H])([2H])[2H]`, the Drug metabolism result in data set [4] and in [5] was “Metabolite_Detected” throughout.
With `Cc1nc(NC(=O)N2CCC[C@H]2C(N)=O)sc1-c1ccnc(C(C)(C)C)n1`, in data set [6], the remaining at 0 min, 5 µM came out at 98.9%. The remaining at 1 h, 5 µM stood at 87.2% in data set [7] and 90.8% in data set [8]. Besides, the microsomal CLint at 1 µM in data set [9] came out at 35 µL/min/mg; in data set [10], 55 µL/min/mg; in data set [11] it was 32 µL/min/mg. Besides, the Vd in [12] is 1.2 L/kg. The half-life in data set [13] is 72 min. Besides, the AUC/dose in [14] is 2010 nM·kg·h/mg; in data set [15], 527 nM·kg·h/mg. The compound further gave a bioavailability in data set [16] of 26%. Besides, the Cmax/dose in [17] is on record as 180 nM. Further, in [18], the Tmax was found to be 18 min. Besides, the remaining at 0.5 h came out at 90% in data set [19] and 74% in data set [21]. In addition, the remaining at 1 h in [20] worked out at 86%; in [22] it was 73%. In addition, the figures for the area under the curve (AUC) at 24 h in data set [23], in data set [24] and in [25] were 65 µM·h, 134 µM·h and 383 µM·h, respectively. The Activity in [26] was 10%; in data set [27], 51%. Moreover, the inhibition entry in the data set filed under Mus musculus [28] and in the data set listed under Mus musculus [29] was “Active” throughout.
Take `[2H]C([2H])([2H])C(c1nccc(-c2sc(NC(=O)N3CCC[C@H]3C(N)=O)nc2C)n1)(C([2H])([2H])[2H])C([2H])([2H])[2H]`: the microsomal CLint at 1 µM in data set [9] turned out to be 19 µL/min/mg; in data set [10], 22 µL/min/mg; in data set [11] it was 19 µL/min/mg. Besides, the remaining at 1 µM in [30] came out at 94.5%; in data set [31], 96.2%. In addition, in data set [32], the clearance was found to be 16 mL/min/kg. Further, the Vd in data set [12] turned out to be 1.4 L/kg. In addition, the half-life in data set [13] was 90 min. Further, the AUC/dose is 2750 nM·kg·h/mg in data set [14] and 1490 nM·kg·h/mg in data set [15]. The compound further returned a bioavailability in [16] of 54%. The same compound gave a Cmax/dose in [17] of 270 nM. In addition, the time to peak (Tmax) in [18] stood at 18 min. Further, the remaining at 0.5 h in data set [19] came to 95%; in data set [21], 91%. The remaining at 1 h in data set [20] amounted to 95%; in data set [22], 91%. The Activity in data set [33] turned out to be 24%; in [34], 63%.
`[2H]C([2H])([2H])C(c1nccc(-c2sc(NC(=O)N3CCC[C@H]3C(N)=O)nc2C)n1)(C([2H])([2H])[2H])C([2H])([2H])O`: the Drug metabolism result in [4] and in data set [5] was “Metabolite_Detected” each time.
`Cc1nc(NC(=O)N2CCC[C@H]2C(N)=O)sc1-c1ccnc(C(C)(C)CO)n1`: the Drug metabolism entry in data set [1] and in data set [2] was “Metabolite_Detected” throughout.
